Some test systems named below: A498 renal; A549 NSCLC; CAKI-1 renal; DU-145 prostate; MCF7 breast; NCI-H226 lung; RXF 393 renal; SK-MEL-5 melanoma; HL-60(TB) leukemia; IGROV1 ovarian.
Common to all, as to assay: DTP human tumour cell line panel, 48 h

Structures are written as SMILES.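 Protocol summary: plate cells (96-well), add compound at 5 concentrations, incubate 48 h, interpolate endpoints linearly. GI50 is the concentration that inhibits growth by half. TGI denotes the concentration required for complete inhibition of growth.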

With `NS(=O)(=O)c1nnc(NC(=O)C23CC4CC(CC(C4)C2)C3)s1`, the TGI with A498 renal, in the experiment on A549 NSCLC, in the experiment with CAKI-1 renal, with DU-145 prostate, in the experiment on MCF7 breast and with NCI-H226 lung was greater than 100 µM each time. Further, the TGI with RXF 393 renal and in the experiment with SK-MEL-5 melanoma was greater than 100 µM throughout.
For the compound `Cc1[nH]c(=O)[nH]c(=O)c1/C=C/C(=O)O` (tested in a mixture with another compound), the TGI in the experiment on A498 renal, in the experiment on A549 NSCLC, in the experiment with CAKI-1 renal, in the experiment on HL-60(TB) leukemia, in the experiment on IGROV1 ovarian and in the experiment with MCF7 breast was greater than 625 µM throughout. Also, the TGI in the experiment on NCI-H226 lung, with RXF 393 renal and with SK-MEL-5 melanoma was greater than 625 µM each time.
As for `COc1cc2c3cc1Oc1c(O)c(OC)cc4c1C(Cc1ccc(O)c(c1)Oc1ccc(cc1)CC3N(C)CC2)N(C)CC4` (stereo not given), the TGI (commonly the concentration giving total growth inhibition) in the experiment with A498 renal was determined as 32.2 µM; with A549 NSCLC, 31.4 µM; in the experiment with CAKI-1 renal, 32.4 µM; with HL-60(TB) leukemia it was 48.4 µM; with IGROV1 ovarian it was 56.1 µM; in the experiment on NCI-H226 lung, 38.3 µM. Besides, the values for the TGI in the experiment on RXF 393 renal and with SK-MEL-5 melanoma were 9.7 µM and 32.9 µM, respectively.
Turning to `Cc1cccc(Br)[n+]1[O-]`, the total growth inhibition concentration (TGI) with A549 NSCLC, in the experiment on CAKI-1 renal, with DU-145 prostate, with IGROV1 ovarian, with MCF7 breast and in the experiment with NCI-H226 lung was greater than 100 µM in each case. The TGI with RXF 393 renal and in the experiment on SK-MEL-5 melanoma was greater than 100 µM in each case.
Take `O=C1C=CC2OC(c3ccccc3)C(O)C2O1` (stereo not given): the TGI in the experiment on A498 renal stood at 5.85 µM; in the experiment with A549 NSCLC, 14.5 µM; in the experiment on CAKI-1 renal it was 13 µM; in the experiment with HL-60(TB) leukemia, 3.29 µM; in the experiment on IGROV1 ovarian it was 29.1 µM; in the experiment on MCF7 breast it was 16.8 µM. Moreover, the TGI in the experiment on NCI-H226 lung worked out at 5.2 µM; in the experiment with RXF 393 renal it was 4.47 µM; in the experiment on SK-MEL-5 melanoma, 17.1 µM.
Consider `N#CCc1c(-c2ccccc2)n(S(=O)(=O)c2ccccc2)c2ccccc12`, for which the TGI in the experiment with A549 NSCLC, in the experiment on CAKI-1 renal, in the experiment with HL-60(TB) leukemia, in the experiment on IGROV1 ovarian, in the experiment with NCI-H226 lung and with SK-MEL-5 melanoma was greater than 100 µM throughout.
Turning to `COc1cc(OC)cc(-c2ccc(-c3ccc(C(=N)N)cn3)o2)c1`, the GI50 (as a rule, the concentration at which growth is held to half of that of the control) is 1.22 µM in the experiment on A498 renal; 1.86 µM with A549 NSCLC; 1.76 µM in the experiment with DU-145 prostate; 2.12 µM in the experiment with HL-60(TB) leukemia; 1.81 µM in the experiment on IGROV1 ovarian; 1.6 µM in the experiment on SK-MEL-5 melanoma. The TGI with A498 renal stood at 2.51 µM; in the experiment with A549 NSCLC, 3.52 µM; in the experiment on DU-145 prostate it was 3.25 µM; in the experiment with HL-60(TB) leukemia it was 4.38 µM; in the experiment with IGROV1 ovarian it was 3.38 µM; with SK-MEL-5 melanoma, 2.97 µM.
`N#CC(N=Nc1ccccc1C(=O)O)C(N)=O` (stereo not given): the concentration for total growth inhibition (TGI) in the experiment with A549 NSCLC, in the experiment on CAKI-1 renal, with DU-145 prostate, in the experiment on HL-60(TB) leukemia, in the experiment with NCI-H226 lung and in the experiment on RXF 393 renal was greater than 100 µM throughout. For the same compound, the concentration for total growth inhibition (TGI) in the experiment on SK-MEL-5 melanoma is greater than 100 µM.
Turning to `O=C(CN(C(=O)OC12CC3CC(CC(C3)C1)C2)C(=O)OC12CC3CC(CC(C3)C1)C2)Oc1ccc([N+](=O)[O-])cc1`, the TGI in the experiment with A549 NSCLC, in the experiment with CAKI-1 renal, in the experiment on IGROV1 ovarian, with MCF7 breast, in the experiment with NCI-H226 lung and with RXF 393 renal was greater than 100 µM in each case. The compound further gave a concentration for total growth inhibition (TGI) in the experiment on SK-MEL-5 melanoma greater than 100 µM.
For `CCC(C)C(N)C(=O)NC(CC(N)=O)C(=O)NC(CC(C)C)C(=O)NC(CCCCN)C(=O)NC(C)C(=O)NC(CC(C)C)C(=O)NC(C)C(=O)NC(C)C(=O)NC(CC(C)C)C(=O)NC(C)C(=O)NC(CCCCN)C(=O)NC(CCCCN)C(=O)NC(C(=O)NC(CC(C)C)C(N)=O)C(C)CC` (stereo not given), the TGI in the experiment with A498 renal came out at 32.5 µM; in the experiment with A549 NSCLC, 24.9 µM; in the experiment on CAKI-1 renal, 22.5 µM; in the experiment with HL-60(TB) leukemia it was 7.23 µM; in the experiment with IGROV1 ovarian, 34.4 µM; with NCI-H226 lung, 29 µM. Moreover, the results for the TGI in the experiment with RXF 393 renal and in the experiment with SK-MEL-5 melanoma were 21.7 µM and 14.3 µM, respectively.
Consider `CCCCn1c(CSc2ccc(Cl)cc2)c(C(=O)OCC)c2cc(OC)c(Br)cc21`, for which the concentration for total growth inhibition (TGI) is greater than 100 µM in the experiment on A498 renal; greater than 100 µM in the experiment with A549 NSCLC; 75.9 µM with CAKI-1 renal; greater than 100 µM in the experiment on DU-145 prostate; greater than 100 µM with HL-60(TB) leukemia; greater than 100 µM in the experiment on IGROV1 ovarian. Further, the TGI in the experiment on NCI-H226 lung and in the experiment with SK-MEL-5 melanoma was greater than 100 µM throughout.
As for `Clc1cccc(-c2sc(-c3ccsc3)cc2Cc2ccsc2)c1`, the TGI with A549 NSCLC, in the experiment with CAKI-1 renal, with DU-145 prostate, with HL-60(TB) leukemia, in the experiment with IGROV1 ovarian and in the experiment on MCF7 breast was greater than 10 µM throughout. The TGI in the experiment on RXF 393 renal and with SK-MEL-5 melanoma was greater than 10 µM throughout.
Take `COc1ccc(/C=C/C(=O)/C=C/c2ccc(OC)cc2OC)c(OC)c1`: the concentration for total growth inhibition (TGI) in the experiment with A549 NSCLC turned out to be 46.3 µM; in the experiment with CAKI-1 renal, 23.4 µM; in the experiment on DU-145 prostate it was 35.3 µM; with HL-60(TB) leukemia, 13.9 µM; with IGROV1 ovarian, 36.1 µM; with NCI-H226 lung, 37.6 µM. The TGI was found to be 37.1 µM in the experiment on RXF 393 renal and 16.9 µM in the experiment on SK-MEL-5 melanoma.
In the case of `CC(=O)Oc1cc(S(=O)(=O)Nc2n[nH]c(Nc3ccc(C)cc3)n2)c(S)cc1Cl`, the concentration for total growth inhibition (TGI) in the experiment with A498 renal, in the experiment on A549 NSCLC, in the experiment with CAKI-1 renal, in the experiment on DU-145 prostate, in the experiment on HL-60(TB) leukemia and in the experiment with IGROV1 ovarian was greater than 100 µM each time. In the experiment with SK-MEL-5 melanoma, this compound yielded a TGI greater than 100 µM.
For the compound `COC(=O)C1CCC(=S)N1C(=O)OCc1ccccc1` (stereo not given), the concentration for total growth inhibition (TGI) in the experiment on A498 renal, in the experiment with A549 NSCLC, with CAKI-1 renal, with DU-145 prostate, in the experiment with IGROV1 ovarian and with MCF7 breast was greater than 100 µM throughout. In addition, the TGI in the experiment on RXF 393 renal and in the experiment on SK-MEL-5 melanoma was greater than 100 µM in each case.
Take `CCOC(=O)CC(c1ccccc1)C(C)(C(=O)OCC)C(=O)OCC` (stereo not given): the TGI in the experiment with A549 NSCLC, in the experiment on CAKI-1 renal, in the experiment on DU-145 prostate, with HL-60(TB) leukemia, in the experiment on IGROV1 ovarian and with MCF7 breast was greater than 100 µM throughout. The concentration for total growth inhibition (TGI) is greater than 100 µM in the experiment with NCI-H226 lung, 60.9 µM in the experiment with RXF 393 renal and greater than 100 µM in the experiment with SK-MEL-5 melanoma.
